Measurements taken from PubChem BioAssay AID330 (DTP/NCI, 2004).
Values joined by “and” are separate entries in the source; they are usually repeats but may differ in a detail not shown here. Equal entries are not always repeated. Inconclusive results and toxic doses are left out.

System: P388 leukemia ip, CD2F1 mice, survival T/C
Test: NCI In Vivo Anticancer Drug Screen. Data for tumor model P388 Leukemia (intraperitoneal) in CD2F1 (CDF1) mice
Conditions: endpoint: median survival time, higher = longer survival
How it was run: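 Mice carrying the transplanted tumor received test compound or vehicle. Survival was recorded in each group, and the value is the treated-group measurement divided by that of the vehicle-treated control group.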

[1] = dose: 100.0 mg/kg/injection, schedule: Q01DX009 (ip), vehicle: Klucel (hydroxypropylcellulose) (HPC)
[2] = dose: 200.0 mg/kg/injection, schedule: Q01DX009 (ip), vehicle: Klucel (hydroxypropylcellulose) (HPC)
[3] = dose: 6.25 mg/kg/injection, schedule: Q01DX009 (ip), vehicle: saline
[4] = dose: 12.5 mg/kg/injection, schedule: Q01DX009 (ip), vehicle: saline
[5] = dose: 25.0 mg/kg/injection, schedule: Q01DX009 (ip), vehicle: saline
[6] = dose: 50.0 mg/kg/injection, schedule: Q01DX009 (ip), vehicle: saline
[7] = dose: 100.0 mg/kg/injection, schedule: Q01DX009 (ip), vehicle: saline
[8] = dose: 30.0 mg/kg/injection, schedule: Q01DX005 (ip), vehicle: Klucel (hydroxypropylcellulose) (HPC)
[9] = dose: 60.0 mg/kg/injection, schedule: Q01DX005 (ip), vehicle: Klucel (hydroxypropylcellulose) (HPC)
[10] = dose: 60.0 mg/kg/injection, schedule: Q01DX005 (ip), vehicle: saline with Tween-80
[11] = dose: 120.0 mg/kg/injection, schedule: Q01DX005 (ip), vehicle: saline with Tween-80
[12] = dose: 240.0 mg/kg/injection, schedule: Q01DX005 (ip), vehicle: saline with Tween-80
[13] = dose: 50.0 mg/kg/injection, schedule: Q01DX009 (ip), vehicle: saline with Tween-80
[14] = dose: 100.0 mg/kg/injection, schedule: Q01DX009 (ip), vehicle: saline with Tween-80
[15] = dose: 200.0 mg/kg/injection, schedule: Q01DX009 (ip), vehicle: saline with Tween-80
[16] = dose: 200.0 mg/kg/injection, schedule: Q01DX009 (ip), vehicle: saline
[17] = dose: 25.0 mg/kg/injection, schedule: Q01DX005 (ip), vehicle: Klucel (hydroxypropylcellulose) (HPC)
[18] = dose: 50.0 mg/kg/injection, schedule: Q01DX005 (ip), vehicle: Klucel (hydroxypropylcellulose) (HPC)
[19] = dose: 100.0 mg/kg/injection, schedule: Q01DX005 (ip), vehicle: Klucel (hydroxypropylcellulose) (HPC)
[20] = dose: 200.0 mg/kg/injection, schedule: Q01DX005 (ip), vehicle: Klucel (hydroxypropylcellulose) (HPC)
[21] = dose: 50.0 mg/kg/injection, schedule: Q01DX005 (ip), vehicle: saline
[22] = dose: 100.0 mg/kg/injection, schedule: Q01DX005 (ip), vehicle: saline
[23] = dose: 200.0 mg/kg/injection, schedule: Q01DX005 (ip), vehicle: saline
[24] = dose: 60.0 mg/kg/injection, schedule: Q01DX005 (ip), vehicle: saline

`CCC1CN2CCc3cc(OC)c(OC)cc3C2CC1(O)C#N` (centres undefined) was tested, and the T/C [1] was 99 % of control and the T/C [2] was 102 % of control.

With `CC[N](CC)[Ge]([CH2]C)[CH2]C.C[CH2][Ge]([CH2]C)[CH2]C` the T/C [3] was 98 % of control and 109 % of control, the T/C [4] was 98 % of control and 109 % of control and the T/C [5] was 109 % of control and 114 % of control. For the same molecule, the T/C [6] was 121 % of control and the T/C [7] was 118 % of control.

In the case of `CCN(CC)P(=O)(N1CC1)N1CC1`, the T/C [3] was 169 % of control, the T/C [4] was 243 % of control and the T/C (dose: 12.5 mg/kg/injection, schedule: Q04DX003 (ip), vehicle: saline) was 175 % of control. The T/C [5] was 86 % of control and the T/C (dose: 25.0 mg/kg/injection, schedule: Q04DX003 (ip), vehicle: saline) was 245 % of control.

For `O=C(O)c1cc2c3ccccc3sc2c2ccccc12`, the T/C [8] was 93 % of control, the T/C [9] was 93 % of control and the T/C (dose: 120.0 mg/kg/injection, schedule: Q01DX005 (ip), vehicle: Klucel (hydroxypropylcellulose) (HPC)) was 90 % of control. For the same molecule, the T/C (dose: 240.0 mg/kg/injection, schedule: Q01DX005 (ip), vehicle: Klucel (hydroxypropylcellulose) (HPC)) was 90 % of control.

In the case of `Nc1ncnc2c1c(-c1ccccc1)cn2-c1ccc(I)cc1`, the T/C [10] was 103 % of control, the T/C [11] was 100 % of control and the T/C [12] was 96 % of control.

`Cn1c(-c2ccccc2)c/c(=N\NS(C)(=O)=O)c2cc(S(=O)(=O)O)ccc21` was tested, and the T/C [13] was 96 % of control, the T/C [14] was 91 % of control and the T/C [15] was 98 % of control.

`CC(/C=C/c1ccccc1)=N\NC(N)=O` was tested, and the T/C [6] was 105 % of control, the T/C [7] was 115 % of control and the T/C [16] was 118 % of control.

For `COc1cc2c(cc1OC)C1=[N+](CC2)C2=C(CC1)C(=O)CCC2`, the T/C [17] was 94 % of control, the T/C [18] was 97 % of control and the T/C [19] was 99 % of control. The T/C [20] was 93 % of control.

In the case of `OCC1OC(n2cnc3c(Cl)ncnc32)CC1O` (centres undefined), the T/C [21] was 94 % of control, the T/C [22] was 92 % of control and the T/C [23] was 102 % of control.

With `CC(C)N1CCN(c2ccncc2S(=O)(=O)N2CCCCC2)CC1` the T/C [6] was 89 % of control, the T/C [7] was 96 % of control and the T/C [16] was 90 % of control.

With `O=C(O)C(Cc1ccc(F)cc1)NC(=O)C(F)(F)F` (centres undefined) the T/C [13] was 95 % of control, the T/C [14] was 95 % of control and the T/C [15] was 100 % of control.

In the case of `CCN(CC)CCNC(=O)c1ccc2c(c1O)C(=O)c1ccccc1C2=O`, the T/C (dose: 50.0 mg/kg/injection, schedule: Q01DX005 (ip), vehicle: saline with Tween-80) was 106 % of control and the T/C (dose: 100.0 mg/kg/injection, schedule: Q01DX005 (ip), vehicle: saline with Tween-80) was 106 % of control.

With `O=C(O)N1CCc2c(sc3ccccc23)C1` the T/C (dose: 12.5 mg/kg/injection, schedule: Q01DX001 (ip), vehicle: Klucel (hydroxypropylcellulose) (HPC)) was 103 % of control, the T/C (dose: 25.0 mg/kg/injection, schedule: Q01DX001 (ip), vehicle: Klucel (hydroxypropylcellulose) (HPC)) was 98 % of control and the T/C (dose: 50.0 mg/kg/injection, schedule: Q01DX001 (ip), vehicle: Klucel (hydroxypropylcellulose) (HPC)) was 100 % of control and 104 % of control.

In the case of `CC1CC(C(=O)O)N1` (centres undefined), the T/C [21] was 101 % of control, the T/C [22] was 98 % of control and the T/C [23] was 97 % of control.

For `Cc1ccc(NS(=O)(=O)N2CCCCC2)cc1`, the T/C (dose: 12.5 mg/kg/injection, schedule: Q01DX009 (ip), vehicle: Klucel (hydroxypropylcellulose) (HPC)) was 106 % of control, the T/C (dose: 25.0 mg/kg/injection, schedule: Q01DX009 (ip), vehicle: Klucel (hydroxypropylcellulose) (HPC)) was 95 % of control and the T/C (dose: 50.0 mg/kg/injection, schedule: Q01DX009 (ip), vehicle: Klucel (hydroxypropylcellulose) (HPC)) was 98 % of control. For the same molecule, the T/C [1] was 116 % of control, the T/C [2] was 115 % of control and the T/C (dose: 400.0 mg/kg/injection, schedule: Q01DX009 (ip), vehicle: Klucel (hydroxypropylcellulose) (HPC)) was 113 % of control.

In the case of `CCCCCCC(=O)/C=C/c1ccc(OC(=O)c2ccccc2)cc1`, the T/C [6] was 97 % of control, the T/C [7] was 97 % of control and the T/C [16] was 110 % of control.

With `CCOC(=O)C12CC(COc3ccc([N+](=O)[O-])cc3)ON1OC(COc1ccc([N+](=O)[O-])cc1)C2` (centres undefined) the T/C (dose: 15.0 mg/kg/injection, schedule: Q01DX005 (ip), vehicle: saline with Tween-80) was 93 % of control, the T/C (dose: 30.0 mg/kg/injection, schedule: Q01DX005 (ip), vehicle: saline with Tween-80) was 90 % of control and the T/C [10] was 86 % of control and 88 % of control.

`COc1ccc(CC2(OC(C)=O)N=NC(C)(C)O2)cc1` (centres undefined) was tested, and the T/C [18] was 103 % of control, the T/C [19] was 98 % of control and the T/C [20] was 98 % of control.

In the case of `C[C@@H]1[C@H](c2ccccc2)OCN1C`, the T/C (dose: 12.5 mg/kg/injection, schedule: Q01DX005 (ip), vehicle: saline) was 101 % of control and 93 % of control, the T/C (dose: 25.0 mg/kg/injection, schedule: Q01DX005 (ip), vehicle: saline) was 101 % of control and the T/C (dose: 30.0 mg/kg/injection, schedule: Q01DX005 (ip), vehicle: saline) was 111 % of control. For the same molecule, the T/C [21] was 109 % of control and 124 % of control, the T/C [24] was 118 % of control and the T/C [22] was 111 % of control and 120 % of control. The T/C [23] was 109 % of control.

In the case of `Cn1c2c(c(=O)c3ccccc31)CCC(C)(C)O2`, the T/C [18] was 100 % of control, the T/C [19] was 91 % of control and the T/C [20] was 98 % of control.

With `Cc1cc(O)c2c(c1)C(=O)c1c(c(O)cc(O)c1-c1c(O)cc(O)c3c1C(=O)c1cc(C)cc(O)c1C3=O)C2=O` the T/C (dose: 3.0 mg/kg/injection, schedule: Q01DX005 (ip), vehicle: Klucel (hydroxypropylcellulose) (HPC)) was 95 % of control, the T/C (dose: 6.0 mg/kg/injection, schedule: Q01DX005 (ip), vehicle: Klucel (hydroxypropylcellulose) (HPC)) was 99 % of control and the T/C (dose: 12.0 mg/kg/injection, schedule: Q01DX005 (ip), vehicle: Klucel (hydroxypropylcellulose) (HPC)) was 96 % of control. The T/C (dose: 12.5 mg/kg/injection, schedule: Q01DX005 (ip), vehicle: Klucel (hydroxypropylcellulose) (HPC)) was 91 % of control, the T/C (dose: 24.0 mg/kg/injection, schedule: Q01DX005 (ip), vehicle: Klucel (hydroxypropylcellulose) (HPC)) was 93 % of control and the T/C [17] was 93 % of control.

For `CC(C)(OC(=O)NC(Cc1cnc[nH]1)C(=O)O)c1ccc(N=Nc2ccccc2)cc1` (centres undefined), the T/C [13] was 97 % of control, the T/C [14] was 94 % of control and the T/C [15] was 97 % of control.

`CN(CC(=O)C(O)C(O)C(O)CO)c1ccccc1` (centres undefined) was tested, and the T/C [21] was 99 % of control, the T/C [22] was 100 % of control and the T/C [23] was 100 % of control.

With `O=C(CCl)OCCN1Cc2nc3sc4c(c3c(=O)n2CC1=O)CCCC4` the T/C [13] was 97 % of control, the T/C [14] was 94 % of control and the T/C [15] was 112 % of control.

`Cc1nc2cc(N(C)C)ccc2c(Cl)c1C(N)=O` was tested, and the T/C (dose: 15.0 mg/kg/injection, schedule: Q01DX005 (ip), vehicle: Klucel (hydroxypropylcellulose) (HPC)) was 100 % of control, the T/C [8] was 99 % of control and the T/C [9] was 100 % of control and 96 % of control.

With `COc1ccccc1C1NC(c2ccccc2OC)C2CCCC1C2` (centres undefined) the T/C (dose: 100.0 mg/kg/injection, schedule: Q04DX003 (ip), vehicle: saline) was 91 % of control, the T/C (dose: 200.0 mg/kg/injection, schedule: Q04DX003 (ip), vehicle: saline) was 90 % of control and the T/C (dose: 400.0 mg/kg/injection, schedule: Q04DX003 (ip), vehicle: saline) was 88 % of control.

`O=C(O)c1ccc2n[se]nc2c1` was tested, and the T/C [10] was 96 % of control, the T/C [11] was 105 % of control and the T/C [12] was 97 % of control.

`CC(C)Cc1cc(-c2cc(CC(C)C)on2)no1` was tested, and the T/C [24] was 100 % of control, the T/C (dose: 120.0 mg/kg/injection, schedule: Q01DX005 (ip), vehicle: saline) was 104 % of control and the T/C (dose: 240.0 mg/kg/injection, schedule: Q01DX005 (ip), vehicle: saline) was 100 % of control.

`CCCCCCCCCCSCC(N)C(=O)OCC` (centres undefined) was tested, and the T/C [13] was 99 % of control and the T/C [14] was 94 % of control.

In the case of `O=C1CN(/N=C/c2ccc(-c3ccc(F)cc3)o2)C(=O)N1`, the T/C (dose: 50.0 mg/kg/injection, schedule: Q01DX001 (ip), vehicle: saline with Tween-80) was 103 % of control, the T/C (dose: 100.0 mg/kg/injection, schedule: Q01DX001 (ip), vehicle: saline with Tween-80) was 100 % of control and the T/C (dose: 200.0 mg/kg/injection, schedule: Q01DX001 (ip), vehicle: saline with Tween-80) was 100 % of control. For the same molecule, the T/C (dose: 400.0 mg/kg/injection, schedule: Q01DX001 (ip), vehicle: saline with Tween-80) was 100 % of control.
